Source: US9655990B2, “Polymer based hydrogel” (YEDITEPE UNIVERSITESI, priority 2013, dated 2017)

Columns and labels:
L929-HUVEC co-culture = assay: In vitro wound healing scratch assay, L929-HUVEC co-culture; assay type: cell-based
Experimental: (§1) In order to determine the effect of the gel on wound healing, its capacity for cell migration and wound closure was analyzed by using the scratch assay described in the literature (Walter et al. 2010). […] The cells were seeded onto 12 well culture plates at a concentration of 100,000 cells/well, and by storing them in a carbon dioxide incubator so that they were enabled to attach and reach the sufficient density. Scratches were formed by using 200 μl pipette tip such that they will be perpendicular to the horizontal lines drawn by an acetate pen from the center of the wells to the outside of the wells. Gel combination was applied on the cells and scratch closure was observed. Setrach closure (FIG. 6-7) was analyzed by using NIH Image program upon photographing the regions of the straches which correspond to the lines drawn by an acetate pen and which are in the field of view of the microscope at 0, 12 and 24 hours.

HF (Human Fibroblast) = assay: In vitro wound healing scratch assay, human fibroblast cells; assay type: cell-based
Experimental: as §1

glutathione peroxidase = assay: Glutathione peroxidase enzyme activity assay in treated cells; assay type: cell-based; details: in comparison to the control group
Experimental: (§2) Antioxidant parameters were determined by glutathione peroxidase and superoxide dismutase enzyme activity assay and analysis of the MDA (malondialdehyde) levels. The cells which were subjected to the gel combination, to the active agent and only to the medium for control purposes in 6-well culture plates were collected and protein isolation was performed from the cell pellet by determined by measuring absorbance and drawing a standard curve at 595 nm wavelength with Bradford solution in 96-well ELISA plates by using bovine albumin protein standards (0.125, 0.25, 0.5, 0.75, 1.0, 1.5, 2.0 mg/ml). The enzyme activity assays and MDA levels were determined such that they wilt comply with the protocols given in commercials kits (FIG. 9).

L929 (Mouse Fibroblast) = assay: In vitro wound healing scratch assay, L929 cells; assay type: cell-based
Experimental: as §1

superoxide dismutase = assay: Superoxide dismutase enzyme activity assay in treated cells; assay type: cell-based; details: determined indirectly
Experimental: as §2

Bax and p53 genes = assay: Real time PCR, apoptotic gene levels; assay type: cell-based
Experimental: (§3) Real time PCR (Polymerase Chain Reaction) analyses were performed according to the literature by using SYBR Green method (Yalvac et al, 2010). The primers belonging to the collagen, fibronectin, laminin, Akt, Bax and P53 genes were designed using Primer BLAST software (The National Center for Biotechnology=NCBI). Total RNAs were isolated from the cells on which gel combination was applied and cDNA was synthesized. The synthesized cDNAs were mixed with primers in SYBR Green mix solution such that the final volume will be 20 μl and the expression levels of the genes (FIG. 8) were analyzed by using BIO-RAD device.

Akt gene = assay: Real time PCR, Akt gene level; assay type: cell-based
Experimental: as §3

malondialdehyde = assay: Malondialdehyde (MDA) level in treated cells; assay type: cell-based; details: in comparison to the control group
Experimental: as §2

sodium pentaborate pentahydrate gave a wound closure rate (L929-HUVEC co-culture; 12 hours) of 59%, a wound closure rate (L929-HUVEC co-culture; 24 hours) of 100% and a wound closure rate (HF (Human Fibroblast); 12 hours) of 58%. The wound closure rate (HF (Human Fibroblast); 24 hours) was 91%, the “glutathione peroxidase enzyme activity” value (glutathione peroxidase) was “substantial amount of enzyme activity” and the wound closure (L929 (Mouse Fibroblast); 12 hours) was 71%. For the same substance, the wound closure rate (L929 (Mouse Fibroblast); 24 hours) was 84%, the “superoxide dismutase enzyme activity” value (superoxide dismutase) was “high level of enzyme activity” and the “apoptotic gene levels (Bax, p53)” value (Bax and p53 genes) was “decreased”. For the same substance, the karyotype (human fibroblast cells) was “maintained their normal karyotypes”, the akt gene levels (Akt gene) was “decreased” and the malondialdehyde levels (malondialdehyde) was “low MDA levels”.
